The values below are quoted from earlier work in PMC10582678 (Clinical and Translational Science, 2023).

SMILES strings stand for the structures. Like-named read-outs stand apart in the source and are kept apart here.

In the data set the target is BTK (Homo sapiens, UniProt Q06187). Conditions: cited from earlier work.
Chain of BTK (Q06187 whole entry): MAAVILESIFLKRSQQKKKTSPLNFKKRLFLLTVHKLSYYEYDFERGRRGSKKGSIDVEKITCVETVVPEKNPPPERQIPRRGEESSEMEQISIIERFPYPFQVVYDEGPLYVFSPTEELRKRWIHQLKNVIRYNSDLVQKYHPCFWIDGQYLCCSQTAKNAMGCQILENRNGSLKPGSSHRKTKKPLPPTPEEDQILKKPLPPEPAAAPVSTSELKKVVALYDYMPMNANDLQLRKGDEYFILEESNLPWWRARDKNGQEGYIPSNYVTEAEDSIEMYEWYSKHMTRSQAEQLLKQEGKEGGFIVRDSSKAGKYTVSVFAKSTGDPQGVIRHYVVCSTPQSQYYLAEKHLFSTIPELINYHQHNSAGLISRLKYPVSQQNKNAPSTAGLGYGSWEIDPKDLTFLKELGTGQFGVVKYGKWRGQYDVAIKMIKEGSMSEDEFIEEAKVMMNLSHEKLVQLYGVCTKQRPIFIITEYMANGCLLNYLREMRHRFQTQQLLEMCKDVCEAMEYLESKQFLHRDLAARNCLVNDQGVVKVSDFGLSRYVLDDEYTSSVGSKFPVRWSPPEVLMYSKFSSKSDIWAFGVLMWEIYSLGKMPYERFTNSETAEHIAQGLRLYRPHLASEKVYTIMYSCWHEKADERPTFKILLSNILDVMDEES

On to `C=CC(=O)Nc1cccc(Nc2nc(Nc3ccc(OCCOC)cc3)ncc2F)c1` [spebrutinib], for which the “BTK receptor occupancy rate” value (b.i.d., patients with rheumatoid arthritis) is recorded as 88%.
For the compound `CC#CC(=O)N1CCC[C@H]1c1nc(-c2ccc(C(=O)Nc3ccccn3)cc2)c2c(N)nccn12` [acalabrutinib], under “twice daily dosing regimen”, the “BTK receptor occupancy rate” value is 96%.
